Assay results as given in paper PMC9496321, “6-Furopyridine Hexamethylene Amiloride Is a Non-Selective P2X7 Receptor Antagonist” (Biomolecules, 2022).

Experiments:
hP2X4 = target: T1, hP2X4 (Homo sapiens, UniProt Q99571); test: Fura-2AM Ca2+ response assay in HEK-hP2X4 cells; type: cell-based
T1 construct: expressed in transfected cells; host or cells: HEK293 cells, transient transfection
T1 sequence (Q99571 1-388): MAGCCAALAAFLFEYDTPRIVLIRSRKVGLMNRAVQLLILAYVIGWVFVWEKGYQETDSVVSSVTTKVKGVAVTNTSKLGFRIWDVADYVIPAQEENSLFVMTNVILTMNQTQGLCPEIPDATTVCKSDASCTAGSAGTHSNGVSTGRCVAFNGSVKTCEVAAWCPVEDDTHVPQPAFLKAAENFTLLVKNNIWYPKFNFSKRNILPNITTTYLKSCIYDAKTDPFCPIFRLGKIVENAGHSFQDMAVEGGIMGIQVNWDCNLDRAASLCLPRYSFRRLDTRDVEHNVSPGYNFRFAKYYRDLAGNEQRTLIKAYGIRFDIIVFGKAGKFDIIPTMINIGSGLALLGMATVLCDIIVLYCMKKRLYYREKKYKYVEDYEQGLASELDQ
Procedure: HEK293 cells were plated at 3.5 × 10^5 cells/well in 2 mL of complete DMEM/F12 medium and incubated (37 °C, 95% air/5% CO2, overnight). Cells were transfected with mP2X7-GFP (HEK-mP2X7), cP2X7-GFP (HEK-cP2X7) or hP2X4-EmGFP (HEK-hP2X4) plasmids, or mock transfected with an equivalent volume of sterile Milli-Q water (Merck Millipore, Burlington, NJ, USA), using Lipofectamine 3000 according to the manufacturer’s instructions. Cells were used for assays 48 h post-transfection. To determine transfection efficiency, cells were washed twice with D-PBS and data collected with an LSR Fortessa X-20 flow cytometer (BD Biosciences). The proportion of GFP positive cells was determined using FlowJo software v8.7.1 (BD Biosciences).
Ca^2+ response assays were conducted as described. […] Fura-2 fluorescence at 510 nm was measured every 5 s using a FlexStation 3 (Molecular Devices, San Jose, CA, USA). […] Relative changes in intracellular Ca^2+ were calculated using the ratio of Fura-2AM fluorescence at 510 nm following excitation at 340 nm and 380 nm (F340nm/380nm). […] To determine relative P2X-mediated Ca^2+ responses, the area under the curve from 100 to 180 s was calculated with GraphPad Prism. To determine P2Y-mediated Ca^2+ responses the area under the curve from 30 to 100 s was calculated. In both cases, ATP-induced responses were calculated by subtracting the corresponding basal response. […]

NHE1 = system: NHE1; parameters: method as in PMID 33804289; settings: cited from earlier work
P2X7 = target: T2, P2X7 (Homo sapiens, UniProt Q99572); test: ATP-induced YO-PRO-1 uptake into human T cells (PBMCs); type: cell-based; parameters: Human peripheral blood mononuclear cells (PBMCs) were pre-incubated with DMSO (vehicle) or 30 μM 6-FPHMA; endogenous in cells; host or cells: cryopreserved human PBMCs (CD3+, CD4+, CD8+ T cells), four donors; settings: 30 μM compound, 1 mM ATP
T2 sequence (Q99572 1-595): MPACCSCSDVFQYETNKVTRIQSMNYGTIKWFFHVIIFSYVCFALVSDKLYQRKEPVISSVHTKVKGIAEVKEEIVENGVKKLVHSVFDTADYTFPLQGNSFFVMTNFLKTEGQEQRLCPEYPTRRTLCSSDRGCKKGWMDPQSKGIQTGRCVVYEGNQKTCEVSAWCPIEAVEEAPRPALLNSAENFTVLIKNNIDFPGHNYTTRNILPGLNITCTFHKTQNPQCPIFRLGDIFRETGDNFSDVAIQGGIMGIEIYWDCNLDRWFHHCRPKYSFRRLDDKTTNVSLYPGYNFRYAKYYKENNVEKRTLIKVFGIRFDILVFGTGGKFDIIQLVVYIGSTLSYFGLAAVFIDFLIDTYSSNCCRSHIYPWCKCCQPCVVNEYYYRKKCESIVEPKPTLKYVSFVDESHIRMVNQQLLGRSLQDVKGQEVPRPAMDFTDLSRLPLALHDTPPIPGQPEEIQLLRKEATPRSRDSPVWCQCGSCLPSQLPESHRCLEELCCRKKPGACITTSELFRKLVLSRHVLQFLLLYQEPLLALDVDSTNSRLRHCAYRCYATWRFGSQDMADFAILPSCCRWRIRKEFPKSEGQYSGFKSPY
Procedure: ATP-mediated uptake assays were conducted as described with either ethidium bromide or YO-PRO-1 iodide. Briefly, RPMI8226, HEK-hP2X7, HEK-mP2X7, HEK-cP2X7 or cryopreserved human peripheral blood mononuclear cells (PBMCs) were washed thrice with LDM (300× g, 5 min), resuspended in LDM and 1 × 10^6 cells were added to individual tubes. Cells were pre-incubated in the absence of compound (37 °C, 5 min) or in the presence of compound or vehicle (DMSO) (37 °C, 15 min) as indicated. […] An equal volume of ice-cold Mg^2+ stop solution was added and cells centrifuged (300× g, 5 min). Cells were washed twice in LDM (300× g, 5 min), resuspended and data were collected with an LSR Fortessa X-20 flow cytometer. MFI of ethidium^+ or YO-PRO-1^2+ was determined using FlowJo.

human uPA = system: human uPA; parameters: method as in PMID 33804289; settings: cited from earlier work

inhibition at 100 µM (hP2X4): 100%
IC50 (hP2X4; read-out: IC50, hP2X4-mediated Ca2+ flux): 3.95 ± 0.19 µM
reduction of ATP-induced YO-PRO-1 uptake into CD3+ T cells (P2X7): 62 ± 3%
reduction of ATP-induced YO-PRO-1 uptake into CD4+ T cells (P2X7): 62 ± 3%
reduction of ATP-induced YO-PRO-1 uptake into CD8+ T cells (P2X7): 62 ± 4%
SMILES: N=C(N)NC(=O)c1nc(-c2cc3cnccc3o2)c(N2CCCCCC2)nc1N [6-FPHMA, 6-furopyridine-substituted 5-(N,N-hexamethylene) amiloride]
inhibition of NHE1 (NHE1): inhibit
inhibition of human uPA (human uPA): inhibit
